Measured values published in US20240076347A1, “METHODS FOR PREVENTING FUNGAL INFECTIONS” (Cidara Therapeutics, Inc., priority 2016, published 2024).
Where “and” joins values, the source holds several entries; their conditions need not be identical. Equal values may be shown once. Numbered stars: 1 amine (or outer) side, 2 acyl side, 3 side chain; on linkers, the order of the positions; unused ones are H or OH. Bridge positions count the residues as written; N and C are the ends. Square brackets hold non-standard residues; d marks the D form. Peptide text beside a SMILES is read from it. * marks the point of attachment. ξ: configuration not given here. Orn(4R-OH,5R-OCH2CH2NMe3+) = C[N+](C)(C)CCO[C@@H](N[*:3])[C@H](O)C[C@H](N[*:1])C(=O)[*:2]; hTyr(3S-OH,4S-OH,3'-OSO3H) = N[C@H](C(=O)O)[C@H](O)[C@@H](O)c1ccc(O)c(OS(=O)(=O)O)c1; pTerphenylCO(4''-OnC5H11) = CCCCCOc1ccc(-c2ccc(-c3ccc(C(=O)*)cc3)cc2)cc1; Orn(4R-OH,5R-OH) = O=C([C@H](C[C@@H](O)[C@@H](O)N[*:3])N[*:1])[*:2]; hTyr(3S-OH,4S-OH) = N[C@H](C(=O)O)[C@H](O)[C@@H](O)c1ccc(O)cc1; Pro(3S-OH,4S-Me) = C[C@H]1CN[C@H](C(=O)O)[C@H]1O; X2 = CCCCCOc1ccc(-c2cc(-c3ccc(C(=O)*)cc3)no2)cc1; Gln(3R-OH) = NC(=O)C[C@@H](O)[C@H](N)C(=O)O; X1 = C[C@H]1CN([*:1])C(C(=O)[*:2])C1O; Hyp = O=C(O)[C@@H]1C[C@@H](O)CN1; ξT = CC(O)C(N)C(=O)O

Experiments:
A. fumigatus AF293 = experiment: Pulmonary aspergillosis in neutropenic ICR mice (Examples 14, 15), prophylaxis, survival; assay type: in vivo, Aspergillus fumigatus
Description: Pulmonary aspergillosis: ICR mice (10/grp) were made neutropenic by cyclophosphamide on Day −4 (150 mg/kg), and CPM/cortisone on Day −1 (150/175 mg/kg). Intranasal infection with A. fumigatus AF293 (10^5 CFU/mouse) on Day 0. Prophylaxis CD101 as a single dose (IP; 5, 10, 20 mg/kg) or posaconazole (PO; 2 and 10 mg/kg) 1 day prior to infection. Survival monitored for 10 days.
Pulmonary aspergillosis: ICR mice (10/grp) were made neutropenic by cyclophosphamide on Day −4 (150 mg/kg), and cyclophosphamide/cortisone was given on Day −1 (150/175 mg/kg). Intranasal challenge with A. fumigatus AF293 (10^5 CFU/mouse) was initiated on Day 0 and prophylaxis with CD101 as a single dose (IP; 5, 10, 20 mg/kg) or posaconazole (PO; 2 and 10 mg/kg) was started 1 day prior to infection. Survival was monitored for 10 days.

Candida albicans SC5314 = experiment: Immunocompetent DBA/2 mouse model of disseminated candidiasis, treatment, kidney CFU; assay type: in vivo; conditions: 24 hr
Description: The efficacy of CD101 SC was studied in an immunocompetent DBA/2 mouse model of disseminated candidiasis. Mice (5/grp) were challenged with Candida albicans SC5314 (ATCC: MYA-2876, fluconazole-sensitive human clinical isolate shown to be pathogenic in mice) via IV injection (100 μL, 5.0 log CFU/mouse) and treated with CD101 SC (1, 3 or 10 mg/kg). Micafungin via IP administration was tested as a positive control at the same 3 doses. At 24 hours following challenge, kidneys were harvested and processed for CFU enumeration. All comparisons were made between the treatment and time-matched vehicle groups.

[1] = tested on: Aspergillus fumigatus strain AF293; experiment: Murine model of pulmonary aspergillosis (Example 16), survival and lung burden; assay type: in vivo; conditions: for Mean Survival / Median Survival / survival time post infection, range / mice that survived to the end of the study: Day −1; for mice that survived to the end of the study: 6 mice per group, 10 days; for Group Geometric mean / Log10 Group Geometric mean / Log10 reduction from vehicle control: terminal lung burden
Description: Animal strain and housing. Mice used in these studies were supplied by Charles River (Margate UK) and were specific pathogen free. The strain of mice used was ICR (also known as CD1 Mice) which is a well characterized outbred murine strain. Male mice were 11-15 g on receipt and allowed to acclimatize for at least 7 days.
Immunosuppression. Mice were immunosuppressed on Day −4 with 150 mg/kg cyclophosphamide administered intraperitoneally (IP), and on Day −1 with 150 mg/kg cyclophosphamide IP and 175 mg/kg cortisone acetate administered subcutaneously (SC). To prevent bacterial infection due to the immunosuppression mice were given once daily 50 mg/kg ceftazidime.
Preparation of Organism and Infection. A. fumigatus strain AF293 inoculum was prepared from spore cultures grown on Sabouraud Dextrose agar (SAB) containing 50 μg/mL chloramphenicol (SABC) in vented tissue culture flasks. Following incubation for 7-10 days at 30° C., spore cultures were washed in sterile phosphate buffered saline (PBS) containing 0.05% Tween 80. Spore count was determined using a haemocytometer and spores were diluted in PBS to ˜6.9×10^6 CFU/mL. Inoculum concentration was confirmed by quantitative culture onto SABC agar.
Neutropenic mice lungs were infected with 0.04 mL (0.02 mL/nare) of ˜4.17×10^6 CFU/mL (˜1.67×10^5 CFU/mouse) of A. fumigatus AF293 by intranasal (IN) instillation under temporary 2.5% isoflurane induced anesthesia.
Preparation of Test Articles. Micafungin (Mycamine, Astellas) was provided as a 50 mg vial (Lot 02323002, expiry 08/2017) and was prepared as per manufacturer's instructions by adding 5 mL saline for injection (SFI) directly into the vial to make up a 10 mg/mL stock solution. This solution was then diluted further in SFI to a working concentration of 0.5 mg/mL. […] It was prepared fresh once and stored at 4° C. until required.
Posaconazole (Noxafil 40 mg/mL oral suspension, Merck Sharp & Dohme Limited) was provided as a 40 mg/mL oral suspension (Lot N00801, expiry 04/2019). This suspension was then diluted further in water for infection (WFI) to a working concentration of 0.2 and 1 mg/mL. The suspension was administered orally (PO) at 10 mL/kg for 2 and 10 mg/kg doses respectively, was prepared fresh once and stored at 4° C. until required.
Test article CD101 stock was prepared at 6 mg/mL in 10% DMSO/1% Tween 20 diluent. A clear non particulate solution was obtained following gentle mixing. […] All doses were administered IP at 10 mL/kg. The study doses were kept at 4° C. until required.
Treatment. For this study, treatments were initiated on Day 1 pre infection according to treatment groups outlined in Table 22. A total of 36 mice (6/treatment group) were used in the study.
Endpoints. The primary endpoint for this study was survival within agreed ethical limits (>20% weight loss, severe hypothermia <34° C., inability to reach food or drink, severe hunching). Mice were monitored by daily weight measurements with observations as frequently as clinical condition required.
Mice presenting with severe clinical deterioration were humanely euthanized using an overdose of pentobarbitone administered by IP injection following clinical assessment and the time of death was recorded. Animal carcasses were stored at −20° C. before quantitative assessment of burden.
Ten days post infection all surviving animals were weighed and had their clinical condition assessed prior to being euthanized. Final survival numbers were recorded and analysed as described below and carcasses frozen at −20° C. prior to further processing.
Lung burden. A secondary endpoint for the study was terminal lung tissue burden. Immediately following confirmation of death, carcasses were frozen at −20° C. prior to tissue dissection and processing. The frozen carcasses were thawed at room temperature, the lungs removed and placed into pre-weighed bead-beating tubes containing 2 mL of PBS and subjected to mechanical disruption. […]

CCCCCOc1ccc(-c2ccc(-c3ccc(C(=O)N[C@H]4C[C@@H](O)[C@@H](OCC[N+](C)(C)C)NC(=O)C5C(O)[C@@H](C)CN5C(=O)[C@H]([C@@H](C)O)NC(=O)[C@H]([C@H](O)[C@@H](O)c5ccc(O)cc5)NC(=O)[C@@H]5C[C@@H](O)CN5C(=O)C(C(C)O)NC4=O)cc3)cc2)cc1 (stereo partly drawn) [CD101] ({pTerphenylCO(4''-OnC5H11)}-[Orn(4R-OH,5R-OCH2CH2NMe3+)][ξT][Hyp][hTyr(3S-OH,4S-OH)]T[X1]; lactam 1-C)
survival (A. fumigatus AF293; 20 mg/kg IP one day prior to infection (human 400 mg AUC equivalent)): increase in survival relative to control
survival rate (A. fumigatus AF293; 20 mg/kg IP one day prior to infection, 10 days): 30%
survival rate (A. fumigatus AF293; single dose IP (5, 10, 20 mg/kg) one day prior to infection): dose-dependent increase in survival rate
animals completely cleared of CFU burden (Candida albicans SC5314; 1 mg/kg SC): 4 of 5
kidney CFU (Candida albicans SC5314; 1, 3 and 10 mg/kg SC, vs vehicle): significant reduction in kidney CFU
kidney CFU (Candida albicans SC5314; 3 or 10 mg/kg SC): complete CFU clearance
Mean Survival ([1]; 20 mg/kg IP once): 130.4 h
Median Survival ([1]; 20 mg/kg IP once): 74.7 h
survival time post infection, range ([1]; 20 mg/kg IP once): 70 to 240 h
mice that survived to the end of the study ([1]; 20 mg/kg IP once): Two
Mean Survival ([1]; 60 mg/kg IP once): 122.7 h
Median Survival ([1]; 60 mg/kg IP once): 88.7 h
survival time post infection, range ([1]; 60 mg/kg IP once): 73-240
mice that survived to the end of the study ([1]; 60 mg/kg IP once): A single mouse
survival vs vehicle (conclusion) ([1]; 20 and 60 mg/kg once one day pre-infection): slight increase in survival, which was statistically longer than the vehicle treatment
Group Geometric mean ([1]; 20 mg/kg IP Day −1): 4.37 × 10^3 CFU/g
Log10 Group Geometric mean ([1]; 20 mg/kg IP Day −1): 3.64 CFU/g
Log10 reduction from vehicle control ([1]; 20 mg/kg IP Day −1): 0.53 CFU/g
Group Geometric mean ([1]; 60 mg/kg IP Day −1): 1.38 × 10^4 CFU/g
Log10 Group Geometric mean ([1]; 60 mg/kg IP Day −1): 4.14 CFU/g
Log10 reduction from vehicle control ([1]; 60 mg/kg IP Day −1): 0.03 CFU/g

CCCCCOc1ccc(-c2cc(-c3ccc(C(=O)N[C@H]4C[C@@H](O)[C@@H](O)NC(=O)[C@@H]5[C@@H](O)[C@@H](C)CN5C(=O)[C@H]([C@H](O)CC(N)=O)NC(=O)[C@H]([C@H](O)[C@@H](O)c5ccc(O)c(OS(=O)(=O)O)c5)NC(=O)[C@@H]5C[C@@H](O)CN5C(=O)[C@H]([C@@H](C)O)NC4=O)cc3)no2)cc1 [Micafungin, micafungin, reference compound] (X2-[Orn(4R-OH,5R-OH)]T[Hyp][hTyr(3S-OH,4S-OH,3'-OSO3H)][Gln(3R-OH)][Pro(3S-OH,4S-Me)]; lactam 1-C)
survival rate (A. fumigatus AF293; 5 mg/kg (human-equivalent 100 mg)): no survivors
kidney CFU (Candida albicans SC5314; 10 mg/kg IP only): complete clearance
kidney CFU (Candida albicans SC5314; 1, 3 and 10 mg/kg IP): good dose response in CFU reduction
Mean Survival ([1]; 5 mg/kg IP once): 92 h and 92.0 h
Median Survival ([1]; 5 mg/kg IP once): 80 h and 80.0 h
survival time post infection, range ([1]; 5 mg/kg IP once): 71 to 162 h
survival vs vehicle (conclusion) ([1]; 5 mg/kg once one day pre-infection): did not show any improvement in survival
Group Geometric mean ([1]; 5 mg/kg IP Day −1): 6.61 × 10^3 CFU/g
Log10 Group Geometric mean ([1]; 5 mg/kg IP Day −1): 3.82 CFU/g
Log10 reduction from vehicle control ([1]; 5 mg/kg IP Day −1): 0.35 CFU/g
